For 24 molecules, IC50 results are on record in patent US9073821B2, “Hydroxamic acid derivative” (priority 2010, dated 2015).

Where only a bound is given, the exact number is not on record here.

The first assay concerns the target Pseudomonas aeruginosa LpxC enzyme (Pseudomonas aeruginosa (strain ATCC 15692 / DSM 22644 / CIP 104116 / JCM 14847 / LMG 12228 / 1C / PRS 101 / PAO1), UniProt P47205). The assay is described as follows: biochemical. It counts as biochemical. To be noted: class symbols A/B/C by IC50; Table 3; read-out: Enzyme inhibitory activity (inhibitory activity on Pseudomonas aeruginosa LpxC enzyme). As for the experimental part:
Test 1: Evaluation of the Inhibitory Activity on Pseudomonas aeruginosa LpxC Enzyme
An inhibition curve was constructed for each test compound by performing the aforementioned reaction at varying concentrations of the test compound. From this inhibition curve, the concentration of the test compound at which the formation of the reaction product was suppressed by 50% was determined as the IC50 of the test compound, which was an index for the inhibitory activity on Pseudomonas aeruginosa LpxC enzyme.
As for `CCOC1CN(Cc2ccc(C#Cc3ccc(C(=O)N(C)C(C(=O)NC)C(=O)NO)cc3)c(F)c2F)C1` (stereo not drawn) [Compound 580, 2-[{[4-({4-[(3-ethoxyazetidin-1-yl)methyl]-2,3-difluorophenyl}ethynyl)phenyl]carbonyl}(methyl)amino]-N-hydroxy-N′-methylpropanediamide], the IC50 was less than 0.01 µM.
On to `CNC(=O)[C@@](C)(C(=O)NO)N(C)C(=O)c1ccc(C#C/C=C/C2CCOCC2)cc1` [Compound 590, (2S)-N-hydroxy-N′,2-dimethyl-2-(methyl {4-[(3E)-4-(tetrahydro-2H-pyran-4-yl)but-3-en-1-yn-1-yl]benzoyl}amino)propanediamide], for which the IC50 is less than 0.01 µM.
For `CNC(=O)[C@@](C)(C(=O)NO)N(C)C(=O)c1ccc(C#C/C=C/C2CC2COC)cc1` (stereo partly drawn) [Compound 596, (2S)-N-hydroxy-2-[(4-{(3E)-4-[2-(methoxymethyl)cyclopropyl]but-3-en-1-yn-1-yl}benzoyl)(methyl)amino]-N′,2-dimethylpropanediamide], the IC50 is less than 0.01 µM.
Consider `CCOC1CN(Cc2ccc(C#Cc3ccc(C(=O)N(C)C(C(=O)NC)C(=O)NO)cc3F)cc2)C1` (stereo not drawn) [Compound 581, 2-[{[4-({4-[(3-ethoxyazetidin-1-yl)methyl]phenyl}ethynyl)-3-fluorophenyl]carbonyl}(methyl)amino]-N-hydroxy-N′-methylpropanediamide], for which the IC50 was less than 0.01 µM.

The same assay, now with this note: inhibitory activity on Pseudomonas aeruginosa LpxC enzyme, class symbols A/B/C; read-out: Enzyme inhibitory activity.
Take `CNC(=O)C(C(=O)NO)N(C)C(=O)c1ccc(-c2ccc(NC)c(C)c2)cc1` (stereo not drawn) [Compound 45, N-hydroxy-N′-methyl-2-(methyl {[3′-methyl-4′-(methylamino)biphenyl-4-yl]carbonyl}amino)propanediamide]: the IC50 is less than 0.01 µM.
Still for that read-out and setting: the result for `CNC(=O)C(C(=O)NO)N(C)C(=O)c1ccc(-c2ccc(OCCCNc3ccccc3)cc2)cc1` (stereo not drawn) [Compound 75, N-hydroxy-N′-methyl-2-[methyl({4′-[3-(phenylamino)propoxy]biphenyl-4-yl}carbonyl)amino]propanediamide] reads less than 0.01 µM; that for `O=C(NC(C(=O)NO)C(=O)NCc1cocn1)c1ccc(-c2ccc(OCCO)cc2)cc1` (stereo not drawn) [Compound 157, N-hydroxy-2-({[4′-(2-hydroxyethoxy)biphenyl-4-yl]carbonyl}amino)-N′-(1,3-oxazol-4-ylmethyl)propanediamide], less than 0.01 µM; that for `CNC(=O)C(C(=O)NO)N(C)C(=O)c1ccc(-c2ccc(OCCCN3CCCOCC3)cc2)cc1` (stereo not drawn) [Compound 277, N-hydroxy-N′-methyl-2-[methyl({4′-[3-(1,4-oxazepan-4-yl)propoxy]biphenyl-4-yl}carbonyl)amino]propanediamide], less than 0.01 µM.
For the molecule `CNC(=O)C(C(=O)NO)N(C)C(=O)c1ccc(-c2ccccc2)nc1` (stereo not drawn) [Compound 190, N-hydroxy-N′-methyl-2-{methyl[(6-phenylpyridin-3-yl)carbonyl]amino}propanediamide], the IC50 is more than 0.1 µM.
The same measure, in the same setting: the result for `CNC(=O)C(C)(C(=O)NO)N(C)C(=O)c1ccc(-c2ccccc2)cc1` (stereo not drawn) [Compound 324, 2-[(Biphenyl-4-ylcarbonyl)(methyl)amino]-N-hydroxy-N′,2-dimethylpropanediamide] reads less than 0.01 µM; that for `CN(C(=O)c1ccc(-c2ccccc2)cc1)C(C(=O)NO)C(=O)NCc1ccncc1` (stereo not drawn) [Compound 178, 2-[(biphenyl-4-ylcarbonyl)(methyl)amino]-N-hydroxy-N′-(pyridin-4-ylmethyl)propanediamide], more than 0.1 µM; that for `CNC(=O)C(C(=O)NO)N(C)C(=O)c1ccc(-c2ccc(OCCCN(C)Cc3c(F)cccc3F)cc2)cc1` (stereo not drawn) [Compound 92, 2-{[(4′-{3-[(2,6-difluorobenzyl)(methyl)amino]propoxy}biphenyl-4-yl)carbonyl](methyl)amino}-N-hydroxy-N′-methylpropanediamide], less than 0.01 µM.
On the same count and under the same terms, the figure for `CNC(=O)C(C(=O)NO)N(C)C(=O)c1ccc(C#Cc2ccn(C)n2)cc1` (stereo not drawn) [Compound 418, N-hydroxy-N′-methyl-2-[methyl({4-[(1-methyl-1H-pyrazol-3-yl)ethynyl]phenyl}carbonyl)amino]propanediamide] is more than 0.1 µM; for `CNC(=O)C(NC(=O)c1ccc(-c2ccc(OCCOCCO)cc2)cc1)C(=O)NO` (stereo not drawn) [Compound 14, N-hydroxy-2-[({4′-[2-(2-hydroxyethoxy)ethoxy]biphenyl-4-yl}carbonyl)amino]-N′-methylpropanediamide] it is less than 0.01 µM; for `CNC(=O)C(C(=O)NO)N(C)C(=O)c1ccc(-c2cnco2)cc1` (stereo not drawn) [Compound 310, N-hydroxy-N′-methyl-2-(methyl {[4-(1,3-oxazol-5-yl)phenyl]carbonyl}amino)propanediamide] it is more than 0.1 µM.
In the case of `CNC(=O)C(C(=O)NO)N(C)C(=O)c1ccc(-c2ccc(OCCCN3CCOC3=O)cc2)cc1` (stereo not drawn) [Compound 71, N-hydroxy-N′-methyl-2-[methyl({4′-[3-(2-oxo-1,3-oxazolidin-3-yl)propoxy]biphenyl-4-yl}carbonyl)amino]propanediamide], the IC50 was less than 0.01 µM.
`CNC(=O)C(C(=O)NO)N(C)C(=O)c1ccc(OCc2ccc(OC)cc2)cc1` (stereo not drawn) [Compound 319, N-hydroxy-2-[({4-[(4-methoxybenzyl)oxy]phenyl}carbonyl)(methyl)amino]-N′-methylpropanediamide]: the IC50 fell in the range of 0.01 to 0.1 µM.
The same measure, in the same setting: the result for `CCCNc1ccc(C#Cc2ccc(C(=O)N(C)C(C(=O)NC)C(=O)NO)cc2)nc1` (stereo not drawn) [Compound 407, N-hydroxy-N′-methyl-2-{methyl[(4-{[5-(propylamino)pyridin-2-yl]ethynyl}phenyl)carbonyl]amino}propanediamide] reads 0.01 to 0.1 µM; that for `CNC(=O)C(C(=O)NO)N(C)C(=O)c1ccc(-c2ccc(C)c(F)c2)cc1` (stereo not drawn) [Compound 28, 2-{[(3′-fluoro-4′-methylbiphenyl-4-yl)carbonyl](methyl)amino}-N-hydroxy-N′-methylpropanediamide], less than 0.01 µM.
For `CNC(=O)C(C(=O)NO)N(C)C(=O)c1ccc(C#Cc2csc(COC)c2)cc1` (stereo not drawn) [Compound 436, N-hydroxy-2-[(4-{[5-(methoxymethyl)thiophen-3-yl]ethynyl}benzoyl)(methyl)amino]-N′-methylpropanediamide], the IC50 lay in the range of 0.01 to 0.1 µM.
In the case of `CNC(=O)C(C(=O)NO)N(C)C(=O)c1ccc(-c2ccc(N(C)CC3CC3)cc2)cc1` (stereo not drawn) [Compound 85, 2-[({4′-[(cyclopropylmethyl)(methyl)amino]biphenyl-4-yl}carbonyl)(methyl)amino]-N-hydroxy-N′-methylpropanediamide], the IC50 was less than 0.01 µM.
For the molecule `CNC(=O)C(C(=O)NO)N(OC)C(=O)c1ccc(-c2ccccc2)cc1` (stereo not drawn) [Compound 17, 2-[(biphenyl-4-ylcarbonyl)(methoxy)amino]-N-hydroxy-N′-methylpropanediamide], the IC50 fell in the range of 0.01 to 0.1 µM.
As to `CNC(=O)C(C(=O)NO)N(C)C(=O)c1ccc(C#CC#Cc2ccc(CN3CCN(C)CC3)cc2)cc1` (stereo not drawn) [Compound 492, N-hydroxy-N′-methyl-2-(methyl {[4-(4-{4-[(4-methylpiperazin-1-yl)methyl]phenyl}buta-1,3-diyn-1-yl)phenyl]carbonyl}amino)propanediamide], the IC50 is less than 0.01 µM.
Still for that read-out and setting: the figure for `CNC(=O)C(C(=O)NO)N(C(=O)c1ccc(-c2ccc(OCCO)cc2)cc1)C1CC1` (stereo not drawn) [Compound 154, 2-(cyclopropyl {[4′-(2-hydroxyethoxy)biphenyl-4-yl]carbonyl}amino)-N-hydroxy-N′-methylpropanediamide] is 0.01 to 0.1 µM.
